Assay results published in ChEMBL document CHEMBL1255310, “Simvastatin treatment shows no effect on the incidence of cerebral malaria or parasitemia during experimental malaria” (2008).

Assays:
Format in all cases: functional
Plasmodium berghei [1] = experiment: Antiplasmodial activity against Plasmodium berghei ANKA infected in C57BL/6 mice (Mus musculus) assessed as parasitemia at 2 ug/g, intraperitoneally on days 2,4 and 6
Plasmodium berghei [2] = experiment: Antiplasmodial activity against Plasmodium berghei ANKA infected in C57BL/6 mice (Mus musculus) assessed as parasitemia at 0.5 ug/g, intraperitoneal on day 2, 1 ug/g, intraperitoneal on day 4 followed by 2 ug/g on day 6
Plasmodium berghei [3] = experiment: Antiplasmodial activity against Plasmodium berghei ANKA infected in C57BL/6 mice (Mus musculus) assessed as parasitemia at 40 ug/g, intraperitoneally on days 2,4 and 6
Plasmodium berghei [4] = experiment: Antiplasmodial activity against Plasmodium berghei ANKA infected in C57BL/6 mice (Mus musculus) assessed as parasitemia at 100 ug/g, perorally on days 1,3 and 5

## CCC(C)(C)C(=O)O[C@H]1C[C@@H](C)C=C2C=C[C@H](C)[C@H](CC[C@@H]3C[C@@H](O)CC(=O)O3)[C@H]21 [SIMVASTATIN]
Plasmodium berghei [1]
  Activity: 2.38%
Plasmodium berghei [2]
  Activity: 3.04%
Plasmodium berghei [3]
  Activity: 2.04%
Plasmodium berghei [4]
  Activity: 2.98%
